Results published in ChEMBL document CHEMBL6087463, “Discovery of Novel 4,5,6,7-Tetrahydro-7H-pyrazolo[3,4-c]pyridin-7-one Derivatives as Orally Efficacious ATX Allosteric Inhibitors for the Treatment of Pulmonary Fibrosis” (J Med Chem, 2025).

Legend:
[1] = target: Autotaxin (Homo sapiens, UniProt Q13822); assay: Inhibition of human ATX using LPC16:0 as substrate preincubated with compound for 20 mins followed by substrate addition and measured after 1 hr by fluorescence based microplate analysis
[2] = target: Voltage-gated inwardly rectifying potassium channel KCNH2 (Homo sapiens, UniProt Q12809); assay: Inhibition of hERG expressed in CHO cells by automated patch-clamp assay; type: toxicity, cell-based
Voltage-gated inwardly rectifying potassium channel KCNH2, sequence (Q12809 whole entry): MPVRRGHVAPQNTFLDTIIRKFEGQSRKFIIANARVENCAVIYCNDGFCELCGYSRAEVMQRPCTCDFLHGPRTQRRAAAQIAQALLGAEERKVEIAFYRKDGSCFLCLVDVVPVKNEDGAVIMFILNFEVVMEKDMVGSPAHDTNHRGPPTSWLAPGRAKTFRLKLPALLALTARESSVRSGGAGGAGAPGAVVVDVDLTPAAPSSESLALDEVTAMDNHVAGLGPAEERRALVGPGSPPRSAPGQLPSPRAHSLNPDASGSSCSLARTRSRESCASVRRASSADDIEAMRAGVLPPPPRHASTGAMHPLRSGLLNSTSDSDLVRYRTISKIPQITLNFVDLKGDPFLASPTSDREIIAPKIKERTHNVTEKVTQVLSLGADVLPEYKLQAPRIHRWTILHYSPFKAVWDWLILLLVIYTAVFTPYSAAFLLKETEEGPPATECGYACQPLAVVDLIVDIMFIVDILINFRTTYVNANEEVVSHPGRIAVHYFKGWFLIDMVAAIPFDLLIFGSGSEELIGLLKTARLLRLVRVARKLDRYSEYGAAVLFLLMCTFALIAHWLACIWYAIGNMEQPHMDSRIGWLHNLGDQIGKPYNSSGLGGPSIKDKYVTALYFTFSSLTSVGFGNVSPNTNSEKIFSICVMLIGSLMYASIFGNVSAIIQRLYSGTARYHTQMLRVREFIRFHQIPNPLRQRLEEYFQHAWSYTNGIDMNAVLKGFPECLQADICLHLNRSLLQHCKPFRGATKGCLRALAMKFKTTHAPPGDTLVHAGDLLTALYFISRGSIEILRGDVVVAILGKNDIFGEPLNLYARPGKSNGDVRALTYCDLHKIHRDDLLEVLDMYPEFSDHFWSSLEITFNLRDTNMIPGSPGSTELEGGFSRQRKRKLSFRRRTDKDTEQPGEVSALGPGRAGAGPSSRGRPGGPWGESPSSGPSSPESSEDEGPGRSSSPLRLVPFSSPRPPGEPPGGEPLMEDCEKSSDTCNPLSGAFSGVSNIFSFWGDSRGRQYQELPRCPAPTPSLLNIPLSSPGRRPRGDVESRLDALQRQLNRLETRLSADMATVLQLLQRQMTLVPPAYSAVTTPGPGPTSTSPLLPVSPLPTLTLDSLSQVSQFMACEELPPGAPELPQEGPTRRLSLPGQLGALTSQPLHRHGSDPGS

## CC(C)n1cc(-n2nc(C(=O)NN3CCCC(C(=O)O)C3)c3c2C(=O)N(c2ccccc2)CC3)cn1 (configuration not stated)
[1]
  IC50: 3.26 µM

## COCn1cc(-n2nc(C(=O)Nc3ccccc3C(=O)O)c3c2C(=O)N(c2ccccc2)CC3)cn1
[2]
  IC50: > 30 µM
